Results taken from patent US20040110253A1, “Method for identifying MHC-presented peptide epitopes for T cells” (priority 2002, published 2004).

Assays:
[1] = molecular target: IA^b-pEα displayed on baculovirus-infected SF9 insect cells (mouse; baculovirus); test: flow cytometry, fluorescent multivalent soluble TCR on infected SF9 cells
[2] = molecular target: IA^b-… (SEQ ID NO:26) displayed on baculovirus-infected SF9 insect cells (mouse; baculovirus); test: as above
[3] = molecular target: IA^b-… (SEQ ID NO:25) displayed on baculovirus-infected SF9 insect cells (mouse; baculovirus); test: as above
[4] = molecular target: IA^b-p3K displayed on baculovirus-infected SF9 insect cells (mouse; baculovirus); test: as above
B3K-06 TCR = test: Binding of fluorescent soluble B3K-06 αβTCR to SF9 cells displaying IA^b-peptide (flow cytometry); parameters: species or system mouse
Method: (§1) Next fluorescent, soluble αβTCR reagents were prepared for use in flow cytometry to detect insect cells displaying the appropriate MHCII/peptide combination. Fluorescent multivalent versions of the soluble αβTCR's of B3K-06 and YAe-62 bound to insect cells displaying the IA^b-p3K, but not a control MHCII-peptide combination (data not shown).
(§2) Insect cells displaying IA^b-p3K bound the αβTCR reagents very heterogeneously, probably due to heterogeneous expression of IA^b-p3K due to variations in the multiplicity of infection and the lack of synchrony in viral infection and expression. […] In this case, there was a direct correlation between the amount of surface IA^b-p3K expressed by an individual insect cell and the amount of αβTCR bound with cells bearing a particular level of IA^b-p3K binding the αβTCRs uniformly (data not shown). Therefore, comparing the two types of staining gave a useful tool to evaluate the relation between peptide sequence and the strength of αβTCR binding (see below).
(§3) A large number of SF9 insect cells were infected at an MOI of about one with baculovirus carrying the IA^b peptide library. After 3-4 days the cells were analyzed with fluorescent B3K-06 or YAe-62 soluble αβTCR, as described above. Fluorescent cells were sorted and cultured with fresh uninfected SF9 cells to create new infected cells for analysis and an enriched viral stock. This process was repeated 3 to 4 times. In each case, when no clear fluorescent population was apparent, the brightest 1% of the infected cells was sorted. In later rounds, the majority of the cells in a clearly distinguishable fluorescent population were sorted. Infected cells binding the B3K-06 αβTCR were apparent only after two rounds of enrichment but eventually yielded a population with uniform binding (data not shown). Infected cells that bound the YAe-62 αβTCR were detectable even with the initial library of viruses and enriched rapidly to yield a population with more heterogeneous levels of binding to the receptor (data not shown).
(§4) At the time of the final enrichment, single infected cells binding each of αβTCRs were sorted into individual wells of 96 well culture plates containing fresh SF9 cells in order to prepare clonal viral stocks. These stocks were used to infect fresh SF9 cells which were reanalyzed for binding to the appropriate αβTCR as described above. […] The majority of PCR fragments yielded a single unambiguous peptide sequence. These viruses were used to infect SF9 cells that expressed mouse ICAM and B7.1. The infected cells were used as APCs for either the B3K-06 or YAe-62 hybridoma with IL-2 production being a measure of IA^b-peptide recognition. Viruses expressing IA^b-peptide combinations that neither bound to the αβTCR nor stimulated the T cell hybridomas were used as negative controls and virus producing IA^b-p3K was used as the positive control. Results with a few representative virus clones are shown in FIG. 10A and 10B, and a summary of all of the results are shown in Table 1.

YAe-62 TCR = test: Binding of fluorescent soluble YAe-62 αβTCR to SF9 cells displaying IA^b-peptide (flow cytometry); parameters: species or system mouse
Method: as §1, §2, §3, §4

YAe-62 hybridoma = test: IL-2 production by YAe-62 T cell hybridoma in response to IA^b-peptide presenting APCs; assay type: cell-based, mouse
Source text: The mouse T cell hybridoma, referred to as YAe-62, was chosen as a representative of broadly reactive T cells present in mice carrying transgenes and gene knockouts that lead to expression of MHC Class II that are almost completely occupied by a single peptide (Ignatowicz et al., 1996, Cell 84:521-529). The T cell was produced by immunization with p3K bound to IA^b in mice that express IA^b covalently linked to Eα, a dominant IA^b binding peptide derived from the MHC Class II IEα chain. YAe-62 responds to IA^b-p3K, but not to APCs lacking MHC Class II or to the IA^b-pEα APCs from the mouse from which it was derived. YAe-62 is also reactive against many cell types bearing IA^b in the absence of p3K. It also responds to APCs from a variety of mice carrying other alleles of IA. The inventors have postulated that this T cell responds mainly to the evolutionarily conserved regions of the IA molecule with less dependence on the peptide than seen with conventional T cells (Marrack et al., 2001, J. Immunol. 167:617-621). […] From the X-ray crystal structure of IA^b (Liu et al., 2002, supra) enough was known about how peptides bind to this MHC molecule to design a strategy in which the major MHC anchor amino acids of the peptide could be held constant and only five surface exposed amino acids need be varied in the library (FIG. 8).
as §4

IA^b = molecular target: T1, IA^b (Mus musculus, UniProt P14434+P14483); details: Rees et al., 1999; cited from earlier work
T1 sequence (P14434 24-256): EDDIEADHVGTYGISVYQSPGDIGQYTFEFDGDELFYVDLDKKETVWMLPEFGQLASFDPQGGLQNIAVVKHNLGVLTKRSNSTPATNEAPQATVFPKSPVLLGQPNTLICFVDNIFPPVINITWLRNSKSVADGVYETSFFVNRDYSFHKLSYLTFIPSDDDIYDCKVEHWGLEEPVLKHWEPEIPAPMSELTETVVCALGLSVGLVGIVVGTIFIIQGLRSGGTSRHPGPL
T1 sequence (P14483 28-265): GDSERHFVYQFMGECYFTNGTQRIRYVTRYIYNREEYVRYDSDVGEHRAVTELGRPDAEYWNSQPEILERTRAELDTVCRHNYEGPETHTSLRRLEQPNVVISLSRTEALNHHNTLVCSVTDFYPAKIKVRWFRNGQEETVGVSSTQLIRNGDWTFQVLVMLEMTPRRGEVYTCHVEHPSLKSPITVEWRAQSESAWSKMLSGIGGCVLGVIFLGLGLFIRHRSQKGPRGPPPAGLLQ

B3K-06 hybridoma = test: IL-2 production by B3K-06 T cell hybridoma in response to IA^b-peptide presenting APCs; assay type: cell-based, mouse
Source text: The hybridoma, B3K-06 was produced from wild-type C57BL/6 mice immunized conventionally with the peptide (Rees et al., 1999, supra). […] Also, as is commonly seen with conventional T cells, the interaction of the αβ TcR of B3K-06 with IA^b-p3K is very sensitive to changes in any of the peptide amino acids exposed on the surface of the IA^b-p3K complex. Mutation of positions Q2, K3, K5, N7 or K8 to alanine virtually eliminates recognition of p3K by B3K-06 (Liu et al., 2002, supra and additional data not shown).
as §4

[5] = molecular target: IA^b-… displayed on baculovirus-infected SF9 insect cells (mouse; baculovirus); test: flow cytometry, fluorescent multivalent soluble TCR on infected SF9 cells
T cell 3DT-52.5 [6] = test: IL-2 production by T cell 3DT-52.5 in response to LKD8 cells plus synthetic peptide; assay type: cell-based, mouse; details: synthetic peptide 100 ug/ml, D^d expressing Tap deficient cell line, twenty four hours
Source text: FIG. 14B is a graph showing IL-2 produced by T cell […] in response to (1) P815 plus a bound unknown self-peptide and 2) LKD8, alone, or in the presence of the library derived peptide, TGPTRWCRL (SEQ ID NO:50), or a peptide derived from the spin protein, AGATRWCRL (SEQ ID NO:51).
DNA from a number of these clones was sequenced through the region encoding the peptide to determine the peptide sequence. Only one sequence was found, a 9mer, TGPTRWCRL (represented by SEQ ID NO:50; the underlined amino acids are in the positions varied in the library). […] A search of the mouse genome for proteins that contained peptides similar to the library peptide yielded a very similar sequence (AGATRWCRL; SEQ ID NO:51) intheprotein, spin(GenBank Accession No. BC011467). The library peptide and the spin peptide were synthesized and tested with a D^d expressing, Tap deficient, cell line for recognition by the original T cell (FIG. 14B). […] In the case of LKD8 the cell line was tested alone or in the presence of 100 ug/ml of the library derived peptide, TGPTRWCRL (SEQ ID NO:50), or a peptide derived from the spin protein, AGATRWCRL (SEQ ID NO:51). After twenty four hours the culture supernatants were assayed for IL-2. Without an added peptide, the D^d on this cell line was not recognized because the Tap deficiency prevents loading of endogenous peptides.

T cell 3DT-52.5 [7] = test: IL-2 production by T cell 3DT-52.5 in response to infected SF9 cells expressing D^d tethered to peptide; assay type: cell-based, mouse; details: infected insect cells expressing D^d bearing the peptide as APCs
Source text: FIG. 14A is a graph showing IL-2 produced by T cell 3DT-52.5 in response to ICAM+/B7+ SF9 cells infected with baculovirus expressing D^d tethered to either pHIV or the αβTCR identified peptide, TGPTRWCRL (SEQ ID NO:50).
To screen the library, soluble a αβTCR were produced from a mouse T cell specific for D^d plus an unknown self-peptide (Endres et al., 1983, J Immunol 131:1656-1662). A multimeric, fluorescent version of the αβTCR was produced as described for MHCII specific αβTCRs. SF9 cells, infected with the library at a multiplicity of infection (MOI) of <1, were analyzed for binding of the fluorescent αβTCR (data not shown). Although no clearly fluorescent population of cells was seen, of those with good surface D^d expression, the 1% of the cells with the brightest fluorescence were sorted and cultured with fresh insect cells to expand the virus. This type of enrichment was repeated six times, producing a clear population of infected cells was detected that bound the αβTCR (data not shown). The infected cells were cloned with fresh insect cells to prepare clonal viral stocks. These stocks were re-tested for encoding a D^d-peptide combination that bound the αβTCR.
DNA from a number of these clones was sequenced through the region encoding the peptide to determine the peptide sequence. […]

[8] = IA^b-peptide displayed on baculovirus-infected SF9 cells, fluorescent soluble αβTCR
[9] = insect cells displaying IA^b-peptide

With “soluble αβTCR of YAe-62, fluorescent multivalent version” the TCR Binding (% of p3K) [1] was 0.3 % of p3K, the TCR Binding (% of p3K) [2] was 54.9 % of p3K and the TCR Binding (% of p3K) [3] was 58.3 % of p3K. The TCR Binding (% of p3K) [4] was 100 % of p3K.

For “F E A Q K A K A N K A V (FEAQKAKANKAV; synthetic peptide motif) [p3K, positive control]”, the “B3K-06 TCR Binding (% of p3K)” value (B3K-06 TCR; [8]) was 100.0 % of p3K, the “binding of B3K-06 αβTCR to IA^b-peptide complex (in words)” value (B3K-06 TCR; [9]) was “bound” and the “YAe-62 TCR Binding (% of p3K)” value (YAe-62 TCR; [8]) was 100.0 % of p3K. For the same substance, the “binding of YAe-62 αβTCR to IA^b-peptide complex (in words)” value (YAe-62 TCR; [9]) was “bound”, the “response of YAe-62 to IA^b-peptide APCs” value (YAe-62 hybridoma; APCs bearing IA^b-peptide) was “responds” and the “IL-2 Production (units/ml)” value (YAe-62 hybridoma; YAe-62 hybridoma, infected SF9 cells expressing mouse ICAM and B7.1 as APCs) was 205 units/ml. For the same substance, the “binding of peptide to IA^b” value (IA^b) was “binds well”, the “IL-2 Production (units/ml)” value (B3K-06 hybridoma; B3K-06 hybridoma, infected SF9 cells expressing mouse ICAM and B7.1 as APCs) was 3500 units/ml and the “response of B3K-06 to IA^b-expressing APCs plus peptide” value (B3K-06 hybridoma; IA^b-expressing APCs, data not shown) was “responds to IA^b-expressing APCs in the presence, but not in the absence of the peptide”.

With “soluble αβTCR of B3K-06, fluorescent multivalent version” the TCR Binding (% of p3K) [1] was 0.4 % of p3K, the TCR Binding (% of p3K) [5] was 66.8 % of p3K and the TCR Binding (% of p3K) [4] was 100 % of p3K.

In the case of “TGPTRWCRL (synthetic peptide motif) [9mer D^d library derived peptide identified with the αβTCR of 3DT-52.5]”, the “restoration of the ability of LKD8 cells to stimulate the T cells (IL-2)” value (T cell 3DT-52.5 [6]) is reported as “restored the ability of the cells to stimulate the T cells” and the “stimulation of IL-2 production from the original T cell donor of the αβTCR” value (T cell 3DT-52.5 [7]) is reported as “specifically stimulated IL-2 production”.

In the case of “AGATRWCRL (listed as Mus musculus) [peptide derived from the spin protein]”, the “restoration of the ability of LKD8 cells to stimulate the T cells (IL-2)” value (T cell 3DT-52.5 [6]) is reported as “restored the ability of the cells to stimulate the T cells”.
